The values below are quoted from earlier work in paper PMC4791286, “Puquitinib mesylate, an inhibitor of phosphatidylinositol 3-kinase p110δ, for treating relapsed or refractory non-Hodgkin's lymphoma” (Oncotarget, 2015).

Each structure is given as a SMILES string.

Data set [1] concerns advanced solid tumors and lymphoma. Details: method as in PMID 22357447. The note with it: cited from earlier work.
Data set [2] has as its system MCL. Details: method as in PMID 24615778. The note with it: n = 40; cited from earlier work.
For data set [3], the system named is p110δ. The arrangement: method as in PMID 20959606. The note with it: cited from earlier work.
Data set [4] concerns indolent non-Hodgkin lymphoma (iNHL). The arrangement: method as in PMID 24615776. As to conditions: cited from earlier work.
Data set [5] concerns advanced solid tumors. The note with it: human, in vivo; cited from earlier work.

On to `COc1ccc(-c2ccc3ncc4c(c3c2)n(-c2ccc(N3CCNCC3)c(C(F)(F)F)c2)c(=O)n4C)cn1` [BGT226], for which, in data set [1], the “AST elevations, Grade 2” value is listed as 9 n and the “AST elevations, Grade 3” value is listed as 3 n.

For `CC[C@H](Nc1ncnc2[nH]cnc12)c1nc2cccc(F)c2c(=O)n1-c1ccccc1` [Idelalisib], the “Asymptomatic grade 3 or greater serum transaminase elevations” value in data set [2] is given as 35%; in data set [4] (iNHL, n = 64), 25%. Moreover, the IC50 in data set [3] was […]. Besides, the Response rate in data set [4] (marginal-zone lymphoma subtype) was 33%.

Turning to `C=CCN(/C=C1/C(=O)O[C@H](COC)[C@@]2(C)C1=C(O)C(=O)C1=C2[C@H](OC(C)=O)C[C@]2(C)C(=O)CC[C@@H]12)CC=C` [PX866], the “Grade 3 AST abnormalities” value in data set [5] was 2 of 84 patients.
